The results in this text go back to ChEMBL document CHEMBL1275374, “Ligand-based virtual screening and ADME-tox guided approach to identify triazolo-quinoxalines as folate cycle inhibitors” (Bioorg Med Chem, 2010).

Data set [1] can be described thus: Cytotoxicity against human cDDP-resistant C13 cells after 72 hrs using crystal violet staining by spectrophotometric analysis. It is filed as cell-based. The note with it: C13, 72 h.
Data set [2] in a line: Solubility of the compound in dimethyl sulfoxide. It is filed as physicochemical.
In data set [3] the test system is 2008. In words: Cytotoxicity against human cDDP-sensitive 2008 cells after 72 hrs using crystal violet staining by spectrophotometric analysis. The note with it: Homo sapiens, 2008, 72 h. In kind it is cell-based.
Another data set deals with Vero. Kind of data set: Cytotoxicity against african green monkey Vero cells after 72 hrs using crystal violet staining by spectrophotometric analysis. In kind it is cell-based. The note with it: Chlorocebus sabaeus.
The target in data set [4] is T1, Thymidylate synthase (Homo sapiens, UniProt P04818). Kind of data set: Inhibition of human thymidylate synthase expressed in Escherichia coli BL21 at 50 uM.
Target sequence in this assay (P04818 2-313 limits assumed): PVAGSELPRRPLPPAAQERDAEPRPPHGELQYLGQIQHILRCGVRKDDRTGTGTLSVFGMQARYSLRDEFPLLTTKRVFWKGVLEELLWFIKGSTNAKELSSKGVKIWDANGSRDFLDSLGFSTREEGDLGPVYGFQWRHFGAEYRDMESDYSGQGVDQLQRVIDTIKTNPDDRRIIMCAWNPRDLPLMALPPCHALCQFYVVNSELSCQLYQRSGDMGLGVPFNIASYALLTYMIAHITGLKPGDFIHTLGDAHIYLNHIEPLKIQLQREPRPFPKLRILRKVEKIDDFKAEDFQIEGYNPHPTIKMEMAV
Data set [5] concerns A2780. In words: Cytotoxicity against human cDDP-resistant A2780 cells after 72 hrs using crystal violet staining by spectrophotometric analysis. In kind it is cell-based. The note with it: A2780, 72 h.
Data set [6] addresses T1, Thymidylate synthase. In words: Inhibition of human thymidylate synthase expressed in Escherichia coli BL21 at 100 uM.
Target sequence in this assay (P04818 2-313 limits assumed): as above
Data set [7] addresses T2, Dihydrofolate reductase (Homo sapiens) (UniProt P00374).
T2 sequence (whole entry): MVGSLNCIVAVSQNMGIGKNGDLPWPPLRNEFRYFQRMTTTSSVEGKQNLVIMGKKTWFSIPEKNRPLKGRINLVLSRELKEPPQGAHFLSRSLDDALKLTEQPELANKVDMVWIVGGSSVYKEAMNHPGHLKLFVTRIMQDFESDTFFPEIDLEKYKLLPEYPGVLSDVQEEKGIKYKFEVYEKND
In words: Inhibition of human DHFR expressed in Escherichia coli BL21 at 100 uM.

Data set [8] relates to A2780. Kind of data set: Cytotoxicity against human cDDP-sensitive A2780 cells after 72 hrs using crystal violet staining by spectrophotometric analysis. It is filed as cell-based. The conditions noted are these: A2780, 72 h.
In data set [9] the test system is 2008. In words: Induction of ROS accumulation in human cDDP-sensitive 2008 cells at IC50 concentration after 72 hrs […]. In kind it is cell-based. The note with it: human, 2008, 72 h.
The subject of data set [10] is 2008. In words: Inhibition of thymidylate synthase protein expression in human cDDP-sensitive 2008 cells after 72 hrs by Western blotting. In kind it is functional, cell-based. On the technique in general: Immunoblotting shows a protein as a band on a membrane.
Data set [11] is described as follows: Induction of ROS accumulation in human cDDP-resistant C13 cells at IC50 concentration after 72 hrs […]. In kind it is cell-based. The note with it: c13, 72 h.
The test system of data set [12] is 2008. In words: Inhibition of DHFR protein expression in human cDDP-sensitive 2008 cells after 72 hrs by Western blotting. In kind it is functional, cell-based.
For another data set, the system named is C13. In words: Inhibition of DHFR protein expression in human cDDP-resistant C13 cells after 72 hrs by Western blotting. It is filed as functional, cell-based.
Data set [13] has as its target T1, Thymidylate synthase. In words: Inhibition of thymidylate synthase catalytic activity in human cDDP-sensitive 2008 cells after 72 hrs by Western blotting (reference value: 38.8 +/- 3.9%). It is filed as cell-based. The conditions noted are these: concentration not given here.
Target sequence in this assay (P04818 2-313 limits assumed): as the sequence (P04818 2-313 limits assumed) above
A short description of data set [14]: Inhibition of thymidylate synthase protein expression in human cDDP-resistant C13 cells after 72 hrs by Western blotting. It is filed as functional, cell-based.
Data set [15] addresses T1, Thymidylate synthase. Kind of data set: Inhibition of thymidylate synthase catalytic activity in human cDDP-resistant C13 cells after 72 hrs by Western blotting (reference value: 12.9 +/- 0.6%). It is filed as cell-based. The conditions noted are these: concentration not given here.
Target sequence in this assay (P04818 2-313 limits assumed): as the sequence (P04818 2-313 limits assumed) above
A short description of data set [16]: Cytotoxicity against human Fibroblast at up to 100 uM after 72 hrs using crystal violet staining by spectrophotometric analysis. It is filed as cell-based.
Data set [17] concerns the target T1, Thymidylate synthase. Kind of data set: Inhibition of human thymidylate synthase expressed in Escherichia coli BL21.
Target sequence in this assay (P04818 whole entry): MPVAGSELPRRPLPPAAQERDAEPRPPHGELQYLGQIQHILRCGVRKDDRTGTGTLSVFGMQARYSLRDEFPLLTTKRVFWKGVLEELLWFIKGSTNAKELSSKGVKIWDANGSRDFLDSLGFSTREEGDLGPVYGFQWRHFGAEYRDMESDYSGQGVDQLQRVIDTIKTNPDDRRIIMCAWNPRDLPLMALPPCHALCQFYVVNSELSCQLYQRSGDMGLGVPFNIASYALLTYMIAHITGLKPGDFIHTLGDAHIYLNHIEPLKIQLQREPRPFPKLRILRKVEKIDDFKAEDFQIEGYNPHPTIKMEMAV
The target in data set [18] is T1, Thymidylate synthase. In words: Inhibition of human thymidylate synthase expressed in Escherichia coli BL21 at 25 uM.
Target sequence in this assay (P04818 2-313 limits assumed): as the sequence (P04818 2-313 limits assumed) above

The source made the active and inactive calls. No cut-off for these calls is given here.

In the case of `Cc1ccc(-c2nc3ccccc3n3cc4c(=O)n(C)c(=O)n(C)c4c23)cc1`, the IC50 in data set [1] is 56 µM; with 2008 [3], 53 µM; in the data set with Vero, 100 µM. In addition, the solubility entry in data set [2] is given as “Insoluble”. Also, at Thymidylate synthase [4], the inhibition was less than 5%.

Take `Fc1ccccc1-c1nnc2c(C(F)(F)F)nc3ccccc3n12`: the IC50 came to 11 µM in the data set on A2780 [5]; 27 µM in data set [1]; 17.5 µM in the data set with 2008 [3]; 14 µM in the data set with Vero; 9 µM in the data set with A2780 [8]. Besides, the values for the inhibition (against Thymidylate synthase [6]; in [7]) were 17% and 10%, respectively.

For `COc1ccc(C(=O)c2nc3ccccc3nc2N2CCN(C)CC2)cc1`, the IC50 was 27.4 µM with A2780 [5]; 8.3 µM in data set [1]; 18.8 µM in the data set with 2008 [3]; 42.4 µM in the data set with Vero; 17.4 µM with A2780 [8].

With `FC(F)(F)c1nc2ccccc2n2c(-c3ccc(Cl)cc3)nnc12`, the IC50 amounted to 4.7 µM with A2780 [5]; 3.4 µM in [1]; 2.5 µM in the data set with 2008 [3]; 1.2 µM in the data set with Vero; 2.3 µM in the data set on A2780 [8]. In addition, on Thymidylate synthase [4], the inhibition is less than 5%.

For the compound `C=CCn1cnc2c(c1=O)c1nc3ccccc3nc1n2CCCC`, in [2], the solubility result was “Insoluble”. The compound also returned an inhibition at Thymidylate synthase [4] of less than 5%.

As to `Cc1ccc(-c2nnc3c(C(F)(F)F)nc4ccccc4n23)cc1`, the IC50 in the data set with A2780 [5] was 35.7 µM; in [1], 26.7 µM; with 2008 [3], 42.5 µM; in the data set on Vero, greater than 50 µM; in the data set with A2780 [8], 33 µM. Further, the Activity result (in the data set with 2008 [9]; in [11]) was “Non-toxic” each time. In addition, the inhibition result (in the data set with 2008 [10]; in the data set with 2008 [12]; with C13; in data set [14]) was “inactive” in each case. The inhibition against Thymidylate synthase [13] was determined as 38.8%; against Thymidylate synthase [15], 12.9%.

On to `Cc1cccc(-c2c3c(=O)n(C)c(=O)n(C)c3c3c(C(F)(F)F)nc4ccccc4n23)c1`, for which the figures for the IC50 (in data set [1]; in the data set on 2008 [3]; in the data set with Vero) were 55 µM, 49 µM and 100 µM, respectively. In addition, the inhibition against Thymidylate synthase [4] was less than 5%.

Take `COc1cc(Nc2nc3cc(C(F)(F)F)ccc3nc2C)cc(OC)c1OC`: the 50% inhibitory concentration (IC50) in the data set on A2780 [5] was determined as 35.3 µM; in data set [1], 14.2 µM; in the data set with 2008 [3], 28.8 µM; in the data set on Vero, 40.2 µM; with A2780 [8], 27.5 µM.

Take `N#Cc1c(N)n(CCc2ccccc2F)c2nc3ccccc3nc12`: the IC50 worked out at 22 µM in data set [1], 18 µM with 2008 [3] and 9.1 µM in the data set on Vero. At Thymidylate synthase [4], this compound registered an inhibition of less than 5%.

With `Clc1nc2ccccc2n2c(-c3ccccc3)nnc12`, the IC50 is 6 µM in the data set on A2780 [5]; 13 µM in [1]; 12.5 µM in the data set with 2008 [3]; 18.2 µM in the data set on Vero; 2.5 µM in the data set on A2780 [8]. In [16], the Activity entry is “Non-toxic”. On Thymidylate synthase [17], this compound gave a Ki of 10 µM. At Thymidylate synthase [4], the inhibition stood at 28%.

On to `O=C(Nc1cc(C(F)(F)F)ccc1Cl)c1ccc2nccnc2c1`, for which the IC50 (in [1]; in the data set with 2008 [3]) was 50 µM each time. The same compound came in with an inhibition against Thymidylate synthase [4] of less than 5%.

As to `Cc1ccc(S(=O)(=O)N2CN(c3ccccc3)c3nc4ccccc4nc32)cc1`, the IC50 (in data set [1]; in the data set with 2008 [3]) was 50 µM each time. In addition, the inhibition against Thymidylate synthase [4] was less than 5%.

On to `FC(F)(F)c1ccc(-c2nnc3c(C(F)(F)F)nc4ccccc4n23)cc1`, for which the results for the inhibition (against Thymidylate synthase [6]; in [7]) were 22% and 10%, respectively.

Turning to `Cc1cc(Nc2nc3ccccc3n3cnnc23)ccc1Br`, the results for the IC50 (in data set [1]; in the data set on 2008 [3]; in the data set with Vero) were 19 µM, 17 µM and 20 µM, respectively. At Thymidylate synthase [4], this compound displayed an inhibition of less than 5%.

Turning to `Clc1ccc(Oc2nc3ccccc3n3c(-c4ccc(Cl)cc4)nnc23)cc1`, the inhibition result in data set [7] is “inactive”. The compound also displayed an inhibition at Thymidylate synthase [18] of 53%.

Compound `Cc1ccc(-c2nnc3c(N(C)C)nc4ccccc4n23)cc1` had an inhibition against Thymidylate synthase [6] of 41%. In addition, the inhibition entry in [7] was “inactive”.

For `O=C(CSc1nc2ccccc2nc1-c1ccccc1)N1CCCCCC1`, at Thymidylate synthase [4], the inhibition is less than 5%.

With `O=C(Nc1cccc(Br)c1)c1ccc2nccnc2c1`, the concentration for half-maximal inhibition (IC50) (in data set [1]; with 2008 [3]) was 50 µM throughout. For the same compound, the inhibition on Thymidylate synthase [4] is less than 5%.

Take `FC(F)(F)c1nc2ccccc2n2c(-c3c(Cl)cccc3Cl)nnc12`: the 50% inhibitory concentration (IC50) in the data set with A2780 [5] worked out at 25 µM; in [1] it was 28 µM; in the data set on 2008 [3] it was 37 µM; in the data set with Vero, 10 µM; with A2780 [8], 27.5 µM. Also, the Activity entry (with 2008 [9]; in data set [11]) was “Non-toxic” in each case. Moreover, the inhibition entry (with 2008 [10]; with 2008 [12]; with C13; in data set [14]) was “inactive” each time. Also, the inhibition on Thymidylate synthase [13] was found to be 58.9%; against Thymidylate synthase [15], 32.3%.

Consider `Cc1ccc(S(=O)(=O)N(C)c2nc3ccccc3n3c(-c4ccccc4)nnc23)cc1`, for which the inhibition entry in data set [7] was “inactive”. Also, the inhibition against Thymidylate synthase [4] was found to be 70%.

As to `O=C(c1ccco1)N1N=C(c2ccc3nccnc3c2)CC1c1ccccc1` (configuration not stated), at Thymidylate synthase [6], the inhibition result was “inactive”. At Thymidylate synthase [4], this compound yielded an inhibition of less than 5%.

`COc1ccc(-c2nc3ccccc3n3cc4c(=O)n(C)c(=O)n(C)c4c23)cc1`: the solubility result in data set [2] was “Insoluble”. On Thymidylate synthase [4], this compound displayed an inhibition of less than 5%.

Turning to `COCCn1c(C)nc2c(c1=O)c1nc3ccccc3nc1n2-c1cc(C)cc(C)c1`, the solubility entry in data set [2] is reported as “Insoluble”. On Thymidylate synthase [4], this compound gave an inhibition of less than 5%.

On to `CN1CCN(c2nc3ccccc3n3c(-c4ccccc4)nnc23)CC1`, for which the IC50 with A2780 [5] is 38 µM; in [1], greater than 50 µM; in the data set with 2008 [3], 48 µM; in the data set with Vero, 22 µM; in the data set on A2780 [8], 18 µM. Besides, the inhibition against Thymidylate synthase [6] is less than 10%; in data set [7], 40%.

As to `COCCn1cnc2c(c1=O)c1nc3ccccc3nc1n2-c1ccc(Cl)c(Cl)c1`, the IC50 in data set [1] worked out at 36 µM; with 2008 [3], 31 µM; with Vero, 52 µM. The solubility entry in [2] was “Insoluble”. For the same compound, the inhibition at Thymidylate synthase [4] was less than 5%.

One may read the IC50 as the midpoint of a concentration-inhibition curve. Usually inhibition stands for the percentage by which the read-out fell short of the control. As a reminder, the Ki is the equilibrium dissociation constant of an inhibitor or competing ligand from its target.
